Reference: US20110124523A1, “High Throughput Method for Detecting Apoptosis of Embryonic Stages of Metazoan Helminthic Parasites” (INSTITUTE OF LIFE SCIENCES, priority 2009, published 2011)
“And” between values parts separate entries of the source, which are not always exact repeats. Identical values can stand only once.

Columns and labels:
[1] = system: embryonic stages of S. digitata; test: Intra cellular activation of caspase-3 like cysteine proteinases, anti active caspase-3-PE staining; format: cell-based, Setaria digitata; settings: 24 hr
Method: Adult female filarial worms Setaria digitata were collected from the peritoneum of cattle, slaughtered at a nearby abattoir in sterile Hanks Balanced Salt Solution (HBSS) medium (Sigma H 2387-1L) and transported to the laboratory in a sterile container. The medium containing 1% glucose (Sigma G 7528), Penicillin 100 units/ml, Streptomycin 100 μg/ml (Sigma P 4333). And Amphotericin-B 0.25 μg/ml (Sigma A 2942) was buffered with NaHCO3 (Sigma S 5761). About 5 to 7 worms were taken in a petridish, washed three times in medium, dissected into small pieces in 10 ml of medium under sterile conditions and incubated at 37° C. for 30 minutes to allow the release of embryonic stages (eggs and microfilariae) into the medium. The embryonic stages were harvested into sterile 15 ml. centrifuge tubes and washed three times by centrifuging at 300 g for 10 minutes each with medium and the final pellet was suspended in 1 ml. of RPMI-1640 medium (Sigma R 8005) supplemented with 10% FBS (Sigma F 2442) The number of embryonic stages of S. digitata in the above preparation were counted using light microscope, and the suspension was taken in RPMI-1640 medium containing 10% FBS at 1×10^5 embryonic stages/ml. One ml. each was dispensed into individual wells of a 24 well tissue culture plate. One set of wells was taken as untreated control containing only medium with 10% FBS. […] Motility of the Mf was scored under an inverted microscope. After appropriate treatment and incubation, each set of the cultured embryonic stages of S. digitata were harvested from the 24 well tissue culture plate separately in 15 ml. sterile centrifuge tubes, washed with PBS twice and stained as per requirement following manufacturer's instructions as described below. This was followed by two times washing with PBS and final suspension of the stained embryonic stages was taken in 0.5 ml of sheath fluid (BD Biosciences 342003) before their acquisition in the flow cytometer (BD FACS Calibur, Becten and Dickinson, USA). Analysis was performed on 10,000-acquired events depicted as Dot Plots and Histogram Plots using Cellquest Pro soft ware. All plots were representative of at least 3 experiments. […] After in vitro culture for 24 hours with apoptosis inducing reagents the embryonic stages were harvested in 15 ml. sterile centrifuge tubes and fixed for 60 minutes at 0° C. in 1% paraformaldehyde (Sigma P 6148) in PBS. The suspension was washed first with PBS and then with 1× permeabilisation buffer (eBioscience 00-8333-56) and finally resuspended in 100 μl of 1× permeabilisation buffer at 1×10^5 embryonic stages per ml. This suspension was then incubated for 45 minutes with 20 μl of anti active caspase-3-PE (BD Biosciences 559762). This was followed by washing with PBS twice and analysis by Flow cytometer.

[2] = system: embryonic stages of S. digitata; test: Intra cellular expression of CED-4 protein, flow cytometry; format: cell-based, Setaria digitata; settings: 24 hr
Method: Adult female filarial worms Setaria digitata were collected from the peritoneum of cattle, slaughtered at a nearby abattoir in sterile Hanks Balanced Salt Solution (HBSS) medium (Sigma H 2387-1L) and transported to the laboratory in a sterile container. The medium containing 1% glucose (Sigma G 7528), Penicillin 100 units/ml, Streptomycin 100 μg/ml (Sigma P 4333). And Amphotericin-B 0.25 μg/ml (Sigma A 2942) was buffered with NaHCO3 (Sigma S 5761). About 5 to 7 worms were taken in a petridish, washed three times in medium, dissected into small pieces in 10 ml of medium under sterile conditions and incubated at 37° C. for 30 minutes to allow the release of embryonic stages (eggs and microfilariae) into the medium. The embryonic stages were harvested into sterile 15 ml. centrifuge tubes and washed three times by centrifuging at 300 g for 10 minutes each with medium and the final pellet was suspended in 1 ml. of RPMI-1640 medium (Sigma R 8005) supplemented with 10% FBS (Sigma F 2442) The number of embryonic stages of S. digitata in the above preparation were counted using light microscope, and the suspension was taken in RPMI-1640 medium containing 10% FBS at 1×10^5 embryonic stages/ml. One ml. each was dispensed into individual wells of a 24 well tissue culture plate. One set of wells was taken as untreated control containing only medium with 10% FBS. […] Motility of the Mf was scored under an inverted microscope. After appropriate treatment and incubation, each set of the cultured embryonic stages of S. digitata were harvested from the 24 well tissue culture plate separately in 15 ml. sterile centrifuge tubes, washed with PBS twice and stained as per requirement following manufacturer's instructions as described below. This was followed by two times washing with PBS and final suspension of the stained embryonic stages was taken in 0.5 ml of sheath fluid (BD Biosciences 342003) before their acquisition in the flow cytometer (BD FACS Calibur, Becten and Dickinson, USA). Analysis was performed on 10,000-acquired events depicted as Dot Plots and Histogram Plots using Cellquest Pro soft ware. All plots were representative of at least 3 experiments. The distinctly clustered populations obtained consistently in the Dot plots for the intra uterine embryonic stages of S. digitata (FIG. 1 a) were gated for Mfs (R-1) and eggs (R-2 and R-3) and analyzed for different assays for apoptosis as described below. After in vitro culture for 24 hours with apoptosis inducing reagents the embryonic stages were harvested in 15 ml. sterile centrifuge tubes and fixed for 60 minutes at 0° C. in 1% paraformaldehyde (Sigma P 6148) in PBS. The suspension was washed first with PBS and then with 1× permeabilisation buffer (eBioscience 00-8333-56) and finally resuspended in 100 μl of 1× permeabilisation buffer at 1×10^5 embryonic stages per ml. The intracellular expression of CED-4 was scored by incubation of the fixed and permeabilised embryonic stages with primary goat antibodies—anti CED-4 (Santacruz sc-9193) followed by probing with PE conjugated secondary anti goat IgG-PE (Santacruz sc-3747) antibodies. Incubation of both primary and secondary antibodies (both 1/100 diluted) was done successively in 1× permeabilisation buffer (e Bioscience 00-8333-56) for 1 hr and 45 minutes respectively. The suspension of stained embryonic stages was then washed with PBS twice and finally reading was taken by flow cytometry or confocal microscopy.

Structure (SMILES)	GMI (Geometric Mean Intensity) of Fluorescence, Caspase-3 Activation ([1]; Eggs, 10 μM)	GMI (Geometric Mean Intensity) of Fluorescence, Caspase-3 Activation ([1]; Microfilariae, 10 μM)	GMI (Geometric Mean Intensity) of Fluorescence, CED-4 Expression ([2]; Eggs, 10 μM)	GMI (Geometric Mean Intensity) of Fluorescence, CED-4 Expression ([2]; Microfilariae, 10 μM)	GMI (Geometric Mean Intensity) of Fluorescence, Caspase-3 Activation ([1]; Eggs, 1 μM)	GMI (Geometric Mean Intensity) of Fluorescence, Caspase-3 Activation ([1]; Microfilariae, 1 μM)	GMI (Geometric Mean Intensity) of Fluorescence, CED-4 Expression ([2]; Eggs, 1 μM)	GMI (Geometric Mean Intensity) of Fluorescence, CED-4 Expression ([2]; Microfilariae, 1 μM)
CC1=CC(=O)c2c(O)cccc2C1=O [Plumbagin]	82.35 and 87.32 and 80.16	10.57 and 11.22 and 14.16	209.76 and 213.57 and 210.32	35.97 and 38.27 and 33.39	–	–	–	–
OO [H2O2]	56.95 and 61.37 and 60.20	7.57 and 9.69 and 12.34	99.36 and 100.32 and 95.29	15.72 and 17.33 and 16.26	–	–	–	–
CN[C@@H]1C[C@H]2O[C@@](C)([C@@H]1OC)n1c3ccccc3c3c4c(c5c6ccccc6n2c5c31)C(=O)NC4 [Staurosporine]	–	–	–	–	50.13 and 54.95 and 50.97	6.20 and 6.72	95.67 and 97.28 and 96.32	9.01 and 9.92 and 8.25
